Experimental data as given in ChEMBL document CHEMBL3885881, “DrugMatrix”.

Species: Rattus norvegicus
Test: DrugMatrix - Regimen: Daily Repeat
Type: toxicity, organism-based, Sprague-Dawley
Parameters: regimen Daily Repeat, gender Male, age 6-8 weeks
Conditions: in vivo, sc, route subcutaneous, […]; for ABSOLUTE BASOPHIL / ABSOLUTE EOSINOPHIL / ABSOLUTE LYMPHOCYTE / ABSOLUTE MONOCYTE / ABSOLUTE SEGMENTED NEUTROPHIL / BASOPHIL / EOSINOPHIL / ERYTHROCYTE COUNT / HEMATOCRIT / HEMOGLOBIN / LEUKOCYTE COUNT / LYMPHOCYTE / MEAN CORPUSCULAR HEMOGLOBIN / MEAN CORPUSCULAR HEMOGLOBIN CONCENTRATION / MEAN CORPUSCULAR VOLUME / MONOCYTE / NEUTROPHIL / NUCLEATED RED BLOOD CELLS / PLATELET COUNT: tissue Blood; for ALANINE AMINOTRANSFERASE / ALBUMIN / ALKALINE PHOSPHATASE / ASPARTATE AMINOTRANSFERASE / BLOOD UREA NITROGEN / CARBON DIOXIDE / CHLORIDE / CHOLESTEROL / CREATINE PHOSPHOKINASE / CREATININE / GLUCOSE / LACTATE DEHYDROGENASE / LIPASE / PHOSPHORUS / POTASSIUM / SODIUM / TOTAL BILIRUBIN / TOTAL PROTEIN / URIC ACID: tissue Plasma
[1] = 0 mg/kg, 72 h, dose level Control, time 3 day
[2] = 0 mg/kg, 120 h, dose level Control, time 5 day
[3] = 27 mg/kg, 72 h, dose level Low, time 3 day

Question: Which “ABSOLUTE BASOPHIL” value [1] does the source give for Clc1ccc(CSC(Cn2ccnc2)c2ccc(Cl)cc2Cl)cc1 (centres undefined) [SULCONAZOLE] here?
Answer: 0 CELLS/uL

Question: And the “ABSOLUTE EOSINOPHIL” value [1]?
Answer: 42.67 CELLS/uL

Question: And the “ABSOLUTE LYMPHOCYTE” value [1]?
Answer: 10202 CELLS/uL

Question: What about the “ABSOLUTE MONOCYTE” value [1] of the same compound?
Answer: 261.5 CELLS/uL

Question: And the “ABSOLUTE SEGMENTED NEUTROPHIL” value [1]?
Answer: 2193.83 CELLS/uL

Question: What about the BASOPHIL [1] of the same compound?
Answer: 0%

Question: What about the EOSINOPHIL [1] of the same compound?
Answer: 0.33%

Question: And the “ERYTHROCYTE COUNT” value [1]?
Answer: 5.63 x10E6/uL

Question: What about the HEMATOCRIT [1] of the same compound?
Answer: 35.35%

Question: And the HEMOGLOBIN [1]?
Answer: 13.07 G/DL

Question: What about the “LEUKOCYTE COUNT” value [1] of the same compound?
Answer: 12.7 x10E3/uL

Question: And the LYMPHOCYTE [1]?
Answer: 81.17%

Question: What about the “MEAN CORPUSCULAR HEMOGLOBIN” value [1] of the same compound?
Answer: 23.23 pg

Question: And the “MEAN CORPUSCULAR HEMOGLOBIN CONCENTRATION” value [1]?
Answer: 36.97 G/DL

Question: And the “MEAN CORPUSCULAR VOLUME” value [1]?
Answer: 62.82 fL

Question: What about the MONOCYTE [1] of the same compound?
Answer: 2%

Question: What about the NEUTROPHIL [1] of the same compound?
Answer: 16.5%

Question: And the “NUCLEATED RED BLOOD CELLS” value [1]?
Answer: 0 /100WBC

Question: What about the “PLATELET COUNT” value [1] of the same compound?
Answer: 1180.33 x10E3/uL

Question: And the “ALANINE AMINOTRANSFERASE” value [1]?
Answer: 48.67 u/L

Question: What about the ALBUMIN [1] of the same compound?
Answer: 4.08 G/DL

Question: And the “ALKALINE PHOSPHATASE” value [1]?
Answer: 360.67 u/L

Question: What about the “ASPARTATE AMINOTRANSFERASE” value [1] of the same compound?
Answer: 85.5 u/L

Question: What about the “BLOOD UREA NITROGEN” value [1] of the same compound?
Answer: 17.83 mg/dL

Question: And the “CARBON DIOXIDE” value [1]?
Answer: 26.17 mmol/L

Question: And the CHLORIDE [1]?
Answer: 101.83 MEQ/L

Question: And the CHOLESTEROL [1]?
Answer: 71 mg/dL

Question: And the “CREATINE PHOSPHOKINASE” value [1]?
Answer: 515.17 u/L

Question: And the CREATININE [1]?
Answer: 0.22 mg/dL

Question: And the GLUCOSE [1]?
Answer: 192.5 mg/dL

Question: What about the “LACTATE DEHYDROGENASE” value [1] of the same compound?
Answer: 214.67 u/L

Question: What about the LIPASE [1] of the same compound?
Answer: 8.5 u/L

Question: And the PHOSPHORUS [1]?
Answer: 12.95 mg/dL

Question: What about the POTASSIUM [1] of the same compound?
Answer: 6.39 MEQ/L

Question: And the SODIUM [1]?
Answer: 142.38 MEQ/L

Question: What about the “TOTAL BILIRUBIN” value [1] of the same compound?
Answer: 0.18 mg/dL

Question: And the “TOTAL PROTEIN” value [1]?
Answer: 5.95 G/DL

Question: And the “URIC ACID” value [1]?
Answer: 1.83 mg/dL

Question: And the “ABSOLUTE BASOPHIL” value [2]?
Answer: 0 CELLS/uL

Question: And the “ABSOLUTE EOSINOPHIL” value [2]?
Answer: 188.5 CELLS/uL

Question: What about the “ABSOLUTE LYMPHOCYTE” value [2] of the same compound?
Answer: 12360.83 CELLS/uL

Question: What about the “ABSOLUTE MONOCYTE” value [2] of the same compound?
Answer: 64.33 CELLS/uL

Question: What about the “ABSOLUTE SEGMENTED NEUTROPHIL” value [2] of the same compound?
Answer: 1986.33 CELLS/uL

Question: And the BASOPHIL [2]?
Answer: 0%

Question: What about the EOSINOPHIL [2] of the same compound?
Answer: 1.33%

Question: And the “ERYTHROCYTE COUNT” value [2]?
Answer: 5.52 x10E6/uL

Question: And the HEMATOCRIT [2]?
Answer: 35.82%

Question: And the HEMOGLOBIN [2]?
Answer: 13.25 G/DL

Question: What about the “LEUKOCYTE COUNT” value [2] of the same compound?
Answer: 14.6 x10E3/uL

Question: And the LYMPHOCYTE [2]?
Answer: 84.5%

Question: And the “MEAN CORPUSCULAR HEMOGLOBIN” value [2]?
Answer: 24.05 pg

Question: And the “MEAN CORPUSCULAR HEMOGLOBIN CONCENTRATION” value [2]?
Answer: 36.98 G/DL

Question: And the “MEAN CORPUSCULAR VOLUME” value [2]?
Answer: 64.97 fL

Question: And the MONOCYTE [2]?
Answer: 0.5%

Question: And the NEUTROPHIL [2]?
Answer: 13.67%

Question: And the “NUCLEATED RED BLOOD CELLS” value [2]?
Answer: 0 /100WBC

Question: What about the “PLATELET COUNT” value [2] of the same compound?
Answer: 1297.83 x10E3/uL

Question: And the “ALANINE AMINOTRANSFERASE” value [2]?
Answer: 51.17 u/L

Question: And the ALBUMIN [2]?
Answer: 4.08 G/DL

Question: What about the “ALKALINE PHOSPHATASE” value [2] of the same compound?
Answer: 393.17 u/L

Question: What about the “ASPARTATE AMINOTRANSFERASE” value [2] of the same compound?
Answer: 111 u/L

Question: What about the “BLOOD UREA NITROGEN” value [2] of the same compound?
Answer: 18.17 mg/dL

Question: What about the “CARBON DIOXIDE” value [2] of the same compound?
Answer: 25 mmol/L

Question: What about the CHLORIDE [2] of the same compound?
Answer: 105.17 MEQ/L

Question: And the CHOLESTEROL [2]?
Answer: 65.5 mg/dL

Question: What about the “CREATINE PHOSPHOKINASE” value [2] of the same compound?
Answer: 911.5 u/L

Question: And the CREATININE [2]?
Answer: 0.21 mg/dL

Question: And the GLUCOSE [2]?
Answer: 183 mg/dL

Question: What about the “LACTATE DEHYDROGENASE” value [2] of the same compound?
Answer: 189 u/L

Question: What about the LIPASE [2] of the same compound?
Answer: 8.33 u/L

Question: And the PHOSPHORUS [2]?
Answer: 12.78 mg/dL

Question: And the POTASSIUM [2]?
Answer: 6.05 MEQ/L

Question: What about the SODIUM [2] of the same compound?
Answer: 144.57 MEQ/L

Question: And the “TOTAL BILIRUBIN” value [2]?
Answer: 0.25 mg/dL

Question: And the “TOTAL PROTEIN” value [2]?
Answer: 5.83 G/DL

Question: What about the “URIC ACID” value [2] of the same compound?
Answer: 1.58 mg/dL

Question: What about the “ABSOLUTE BASOPHIL” value [3] of the same compound?
Answer: 0 CELLS/uL

Question: And the “ABSOLUTE EOSINOPHIL” value [3]?
Answer: 84.67 CELLS/uL

Question: And the “ABSOLUTE LYMPHOCYTE” value [3]?
Answer: 11847.67 CELLS/uL

Question: And the “ABSOLUTE MONOCYTE” value [3]?
Answer: 101 CELLS/uL

Question: What about the “ABSOLUTE SEGMENTED NEUTROPHIL” value [3] of the same compound?
Answer: 2233.33 CELLS/uL

Question: And the BASOPHIL [3]?
Answer: 0%

Question: What about the EOSINOPHIL [3] of the same compound?
Answer: 0.67%

Question: And the “ERYTHROCYTE COUNT” value [3]?
Answer: 5.29 x10E6/uL

Question: What about the HEMATOCRIT [3] of the same compound?
Answer: 32.9%

Question: What about the HEMOGLOBIN [3] of the same compound?
Answer: 12.1 G/DL

Question: What about the “LEUKOCYTE COUNT” value [3] of the same compound?
Answer: 14.27 x10E3/uL

Question: And the LYMPHOCYTE [3]?
Answer: 83.33%

Question: What about the “MEAN CORPUSCULAR HEMOGLOBIN” value [3] of the same compound?
Answer: 22.9 pg

Question: And the “MEAN CORPUSCULAR HEMOGLOBIN CONCENTRATION” value [3]?
Answer: 36.8 G/DL

Question: What about the “MEAN CORPUSCULAR VOLUME” value [3] of the same compound?
Answer: 62.23 fL

Question: What about the MONOCYTE [3] of the same compound?
Answer: 0.67%

Question: What about the NEUTROPHIL [3] of the same compound?
Answer: 15.33%

Question: What about the “NUCLEATED RED BLOOD CELLS” value [3] of the same compound?
Answer: 0 /100WBC

Question: And the “PLATELET COUNT” value [3]?
Answer: 979.33 x10E3/uL

Question: What about the “ALANINE AMINOTRANSFERASE” value [3] of the same compound?
Answer: 50.67 u/L

Question: What about the ALBUMIN [3] of the same compound?
Answer: 4.07 G/DL

Question: What about the “ALKALINE PHOSPHATASE” value [3] of the same compound?
Answer: 355.67 u/L

Question: What about the “ASPARTATE AMINOTRANSFERASE” value [3] of the same compound?
Answer: 89 u/L

Question: And the “BLOOD UREA NITROGEN” value [3]?
Answer: 18 mg/dL

Question: And the “CARBON DIOXIDE” value [3]?
Answer: 26.33 mmol/L

Question: And the CHLORIDE [3]?
Answer: 105.67 MEQ/L

Question: And the CHOLESTEROL [3]?
Answer: 74.33 mg/dL

Question: And the “CREATINE PHOSPHOKINASE” value [3]?
Answer: 269.33 u/L

Question: And the CREATININE [3]?
Answer: 0.22 mg/dL

Question: What about the GLUCOSE [3] of the same compound?
Answer: 174 mg/dL

Question: What about the “LACTATE DEHYDROGENASE” value [3] of the same compound?
Answer: 83.33 u/L

Question: And the LIPASE [3]?
Answer: 8.33 u/L

Question: And the PHOSPHORUS [3]?
Answer: 14.23 mg/dL

Question: What about the POTASSIUM [3] of the same compound?
Answer: 5.88 MEQ/L

Question: What about the SODIUM [3] of the same compound?
Answer: 146.57 MEQ/L

Question: What about the “TOTAL BILIRUBIN” value [3] of the same compound?
Answer: 0.17 mg/dL

Question: And the “TOTAL PROTEIN” value [3]?
Answer: 5.83 G/DL

Question: What about the “URIC ACID” value [3] of the same compound?
Answer: 1.5 mg/dL
